Data from article PMC4714869 (Steroids, 2015).
“Also recorded” adds a separate entry of the source.

Legend:
[1] = system: proteinase inhibitor 9 (PI9) expression in HepG2 + ERα cells; assay: PI9 gene expression in HepG2 cells stably expressing ERα; conditions: 10^−8 M EE2; 3×10^−6 M Liq, Iso-Liq, L1–L7; 24 h
[2] = system: PgR and GREB1 gene expression in MCF-7 cells; assay: Estrogen-responsive gene expression; type: cell-based; conditions: for PgR and GREB1 RNA level (gene stimulation): MCF-7, 10^−8 M E2, 10^−6 M Liq or Iso-Liq, 3×10^−6 M L1–L7, 24 h
MCF-7 cells = assay: Proliferation of MCF-7 cells; type: cell-based; conditions: 6 days; two highest concentrations 10^−6 and 3×10^−6 M
human ERβ = human ERβ (Homo sapiens, UniProt Q92731); conditions: for RBA (mean ± SD) ERβ: RBA of estradiol set to 100%, 2 nM [3H]-estradiol, 18–24 h at 0 °C
Sequence of human ERβ (Q92731 whole entry): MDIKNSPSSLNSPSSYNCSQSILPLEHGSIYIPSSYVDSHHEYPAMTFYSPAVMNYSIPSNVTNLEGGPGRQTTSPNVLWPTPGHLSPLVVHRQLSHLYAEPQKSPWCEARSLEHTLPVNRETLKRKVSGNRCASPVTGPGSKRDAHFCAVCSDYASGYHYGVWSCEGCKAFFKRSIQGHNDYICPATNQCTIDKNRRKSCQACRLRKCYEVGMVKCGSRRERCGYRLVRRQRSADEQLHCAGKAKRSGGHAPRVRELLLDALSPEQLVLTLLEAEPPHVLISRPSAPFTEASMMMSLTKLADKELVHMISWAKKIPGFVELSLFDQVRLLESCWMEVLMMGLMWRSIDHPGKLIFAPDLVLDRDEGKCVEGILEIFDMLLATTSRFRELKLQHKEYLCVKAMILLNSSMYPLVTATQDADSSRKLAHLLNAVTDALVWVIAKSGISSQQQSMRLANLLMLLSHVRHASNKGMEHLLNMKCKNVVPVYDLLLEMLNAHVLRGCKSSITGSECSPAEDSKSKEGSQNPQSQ

[3] = system: E2-stimulated PgR and GREB1 gene expression in MCF-7 cells; assay: Inhibition of E2-stimulated PgR and GREB1 gene expression in MCF-7 cells; conditions: 3×10^−6 M component with 10^−9 M E2, 24 h
human ERα = target: T1, human ERα (Homo sapiens, UniProt P03372); assay: Competitive radiometric binding assay with [3H]-estradiol tracer, ERα; conditions: RBA of estradiol set to 100%; 2 nM [3H]-estradiol, 18–24 h at 0 °C
T1 sequence (P03372 1-595): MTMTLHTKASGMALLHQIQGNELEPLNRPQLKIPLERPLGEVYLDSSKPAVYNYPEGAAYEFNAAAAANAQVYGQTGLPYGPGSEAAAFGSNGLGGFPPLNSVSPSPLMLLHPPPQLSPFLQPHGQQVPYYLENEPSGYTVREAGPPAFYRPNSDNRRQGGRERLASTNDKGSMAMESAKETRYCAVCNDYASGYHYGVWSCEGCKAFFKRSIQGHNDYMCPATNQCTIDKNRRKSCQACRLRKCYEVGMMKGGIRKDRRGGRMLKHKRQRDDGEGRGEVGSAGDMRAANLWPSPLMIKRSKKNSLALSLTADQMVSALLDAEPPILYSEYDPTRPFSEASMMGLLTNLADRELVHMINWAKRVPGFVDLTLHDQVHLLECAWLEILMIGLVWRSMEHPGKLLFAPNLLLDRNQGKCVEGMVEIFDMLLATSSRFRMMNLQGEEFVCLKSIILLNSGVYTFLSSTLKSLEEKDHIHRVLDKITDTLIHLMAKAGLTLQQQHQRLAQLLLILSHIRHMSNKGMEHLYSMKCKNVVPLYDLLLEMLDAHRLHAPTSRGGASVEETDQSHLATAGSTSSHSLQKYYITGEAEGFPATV

[4] = system: Ki67 gene expression in MCF-7 cells; assay: Ki67 gene expression in MCF-7 cells by qPCR; conditions: for suppression of E2-elicited increase in Ki67 mRNA: 3×10^−6 M component with 10^−9 M E2, 24 h; for Ki67 RNA expression (stimulation): 10^−8 M E2, 10^−6 M Liq or Iso-Liq, 3×10^−6 M L1–L7, 24 h

ERβ/ERα ratio of RBA (human ERβ)	RBA (mean ± SD) ERβ (human ERβ)	preference for ERβ over ERα (human ERβ; from RBA values)	RBA (mean ± SD) ERα (human ERα)	SMILES	PI9 expression in HepG2 + ERα cells [1]	PgR and GREB1 RNA level (gene stimulation) [2]	stimulation of MCF-7 cell proliferation (MCF-7 cells)	block of E2-stimulated GREB1 expression [3]	block of E2-stimulated PgR expression [3]	suppression of E2-elicited increase in Ki67 mRNA [4]	Ki67 RNA expression (stimulation) [4]	effect of antiestrogen cotreatment on increases in Ki67 RNA expression ([4]; 10^−6 M ICI 182,780, 24 h)	potency in stimulating estrogen-regulated genes, fold less than E2 ([2]; efficacy nearly equivalent to E2)
11.1	0.111 ± 0.004%	greater than 10 fold	0.010 ± 0.001%	COc1c(CC=C(C)C)c(O)cc2c1C[C@H](c1ccc(O)cc1O)CO2 [L5, Glyasperin C]		little or no change in gene expression; also recorded: did not stimulate expression of PgR or GREB1	inactive in eliciting elevation of cell proliferation	only partially	almost fully	not effective in suppressing	did not stimulate Ki67 gene expression		
2.4	0.040 ± 0.001%		0.017 ± 0.001%	COc1c(CC=C(C)C)c(O)cc2oc(=O)c(-c3ccc(O)cc3O)cc12 [L6, Glycycoumarin]		effective in increasing PgR and GREB1 expression					all compounds except for L1, L5, L6 and L7 increased Ki67 RNA expression		
2.4	0.019 ± 0.004%		0.008 ± 0.001%	COc1c(CC=C(C)C)c(O)cc(O)c1-c1coc2cc(O)ccc2c1=O [L7, Glicoricone]		little or no change in gene expression; also recorded: did not stimulate expression of PgR or GREB1	inactive in eliciting elevation of cell proliferation	only partially; also recorded: most effective antagonist of GREB1 stimulation by E2	almost fully	partially suppressed	did not stimulate Ki67 expression		
0.6	0.039 ± 0.011%		0.062 ± 0.008%	COc1ccc(C2COc3cc(O)ccc3C2)c(O)c1 (centres unmarked) [L4, Vestitol]		effective in increasing PgR and GREB1 expression	stimulated cell proliferation quite strongly						ca. 10,000 fold
2.7	0.027 ± 0.004%		0.010 ± 0.004%	COc1ccc(-c2coc3cc(O)ccc3c2=O)cc1O [L2, Calycosin]		effective in increasing PgR and GREB1 expression							

More lines, now with the values behind:

SMILES	ERβ/ERα ratio of RBA (human ERβ)	RBA (mean ± SD) ERβ (human ERβ)	preference for ERβ over ERα (human ERβ; from RBA values)	RBA (mean ± SD) ERα (human ERα)	PI9 expression in HepG2 + ERα cells [1]	PgR and GREB1 RNA level (gene stimulation) [2]	stimulation of MCF-7 cell proliferation (MCF-7 cells)	block of E2-stimulated GREB1 expression [3]	block of E2-stimulated PgR expression [3]	suppression of E2-elicited increase in Ki67 mRNA [4]	Ki67 RNA expression (stimulation) [4]	effect of antiestrogen cotreatment on increases in Ki67 RNA expression ([4]; 10^−6 M ICI 182,780, 24 h)	potency in stimulating estrogen-regulated genes, fold less than E2 ([2]; efficacy nearly equivalent to E2)
O=C(/C=C/c1ccc(O)cc1)c1ccc(O)cc1O [Iso-Liq, Iso-liquiritigenin, reference compound]					stimulated expression	markedly increased	stimulated cell proliferation quite strongly						
O=C1C[C@@H](c2ccc(O)cc2)Oc2cc(O)ccc21 [Liq, Liquiritigenin, reference compound]				<0.001%	stimulated expression	markedly increased	stimulated cell proliferation quite strongly						
CC1(C)C=Cc2c(ccc3c2OC[C@@H](c2ccc(O)cc2O)C3)O1 [L1, Glabridin]	1.2	0.091 ± 0.001%		0.075 ± 0.015%		little or no change in gene expression; also recorded: did not stimulate expression of PgR or GREB1	inactive in eliciting elevation of cell proliferation	only partially	almost fully	not effective in suppressing	did not stimulate Ki67 gene expression		
C#C[C@]1(O)CC[C@H]2[C@@H]3CCc4cc(O)ccc4[C@H]3CC[C@@]21C [EE2, ethinyl estradiol]					stimulated expression								
C[C@]12CC[C@@H]3c4ccc(O)cc4C[C@@H](CCCCCCCCC[S+]([O-])CCCC(F)(F)C(F)(F)F)[C@H]3[C@@H]1CC[C@@H]2O (some centres unmarked) [ICI 182,780, reference compound]												eliminated	
C[C@]12CC[C@@H]3c4ccc(O)cc4CC[C@H]3[C@@H]1CC[C@@H]2O [E2, estradiol, reference compound]						markedly increased							
